Measured values published in patent US5847125A, “Amino acid derivatives with anticholecystokinin activity” (James Black Foundation Limited, priority 1992, dated 1998).

How the values were obtained:
[1] = target: T1, CCK (gallbladder) receptor (Cavia porcellus, UniProt Q63931); test: CCK-receptor bioassay, isolated guinea-pig gall-bladder strip preparations, CCK-8 as agonist; type: cell-based, male Dunkin-Hartley guinea-pigs; settings: negative log10 of equilibrium dissociation constant; guinea-pig gall-bladder strips; CCK-8 agonist; test compound incubated for 60 minutes; 37° C; read-out: pKB versus CCK (gallbladder) (converted)
T1 construct: Isolated, strip preparations were prepared from gall-bladders removed from male Dunkin-Hartley guinea-pigs; from tissue; host or cells: guinea-pig gall-bladder strips
T1 sequence (Q63931 1-430): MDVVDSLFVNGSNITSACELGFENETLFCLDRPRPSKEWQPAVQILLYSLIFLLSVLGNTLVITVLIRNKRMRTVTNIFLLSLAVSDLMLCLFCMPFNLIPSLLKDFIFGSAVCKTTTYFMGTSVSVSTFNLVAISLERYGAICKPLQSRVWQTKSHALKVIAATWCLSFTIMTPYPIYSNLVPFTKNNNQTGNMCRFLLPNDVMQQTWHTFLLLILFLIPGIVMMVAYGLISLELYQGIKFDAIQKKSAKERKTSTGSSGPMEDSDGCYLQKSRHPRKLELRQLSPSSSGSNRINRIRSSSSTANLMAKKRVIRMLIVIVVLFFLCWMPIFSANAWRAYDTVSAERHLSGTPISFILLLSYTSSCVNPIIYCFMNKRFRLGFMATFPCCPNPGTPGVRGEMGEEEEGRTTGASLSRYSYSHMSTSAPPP
Procedure: The compounds of the examples were assayed using a CCK-receptor bioassay as follows:
Isolated, strip preparations were prepared from gall-bladders removed from male Dunkin-Hartley guinea-pigs (250-500 g body weight) according to the method of La Morte, W. W., et al., J.P.E.T., 217, (3), 638-644 (1981).
The complete gall-bladder is removed and opened along the longitudinal axis. Strips measuring 3 mm in the longitudinal axis and 1 mm in the transverse axis are cut and then tied with cotton to stainless steel wires. The preparation is connected to a GRASS FTO3 isometric transducer under an initial loading tension of 1 g and is immersed in 20 mls of Krebs solution maintained at 37° C. and gassed with 95% O2 /5% CO2. The Krebs solution is as detailed above in connection with the fundus assay, except that the Ca^2+ concentration is decreased to 0.5 mM. After 30 mins the preparation is washed. Drug addition begins after an initial 90 min stabilisation period. Responses are measured as changes in tension from that immediately prior to any drug addition. Single cumulative agonist concentration-effect curves, using CCK-8 as agonist, are obtained on each preparation in the absence and presence of test compound which has been incubated for 60 minutes. The antagonist activity of the test compound is estimated and expressed as the negative logarithm (base 10) of the equilibrium dissociation constants (pKB) using the modifications of standard competitive analysis described by Black et al., Br. J. Pharmacol.,86,571-579, (1985) and Shankley et al., Br. J. Pharmacol.,94,264-274 (1988).

CCKA = target: T2, CCKA (Cavia porcellus, UniProt Q63931); test: CCKA binding assay, pancreas membranes, [125I]-CCK8(S); design: species or system male guinea-pigs (Dunkin Hartley); settings: guinea-pig pancreas membranes; [125I]-CCK8(S) 200 pM; 0.375 μM PD134,308; 150 minutes at 21°; non-specific binding 100 nM L-364,718; read-out: pKi CCKλ (converted)
T2 construct: The pancreatata were removed from male guinea-pigs (200-300 g; Dunkin Hartley); from tissue; host or cells: guinea-pig pancreas membranes
T2 sequence (Q63931 1-430): T1 sequence (Q63931 1-430)
Procedure: The compounds of the examples were also tested in a CCKA binding assay as follows:
The pancreatata were removed from male guinea-pigs (200-300 g; Dunkin Hartley) and placed in ice-cold HEPES buffer (pH 7.2@21°±3°). The pancreatata were homogenised in 40 ml ice-cold HEPES buffer using a polytron (Brinkmann, PT10, setting 10) 4×1 second. The homogenate was centrifuged at 39,800 g for 15 min at 4°. The supernatant was discarded and the pellet re-suspended using a Teflon-in-glass homogeniser in 20 volumes of fresh buffer and re-centrifuged as above. The final pellet was re-suspended using a Teflon-in-glass homogeniser to a tissue concentration of 1 mg ml^31 1 (original wet weight), and filtered through 500 μm pore-size Nytex mesh.
The membranes (400 μl; containing 0.375 μM PD134,308) are incubated for 150 minutes at 21°±3° in a final volume of 0.5 ml with HEPES buffer containing [^125 I]--CCK8 (S) (50 μl; 200 pM) and competing compound. Total and non-specific binding of [^125 I]--CCK8 (S) are defined using 50 μl of buffer and 50 μl of 100 nM L-364,718 respectively. The assay is terminated by rapid filtration through pre-soaked Whatman GF/B filters using a Brandell Cell Harvester. The filters were washed (3×3 ml) with ice-cold 50 mM Tris HCl (pH 7.4 at 4°) and bound radioactivity is determined by counting (1 min) in a gamma counter.

CCKB receptor = target: T3, CCKB receptor (Mus musculus, UniProt P56481); test: CCKB radioligand binding assay in mouse cortical membranes, [125I] CCK-8S (selectivity testing); design: species or system male mice; settings: [125I] CCK-8S 200 pM, 150 min at 21°, pH 7.2, non-specific binding L-365,260, read-out: pKi CCKB (converted)
T3 construct: CCKB receptor in mouse cortical membranes; from tissue; host or cells: mouse cerebral cortex membranes (male mice, Charles River)
T3 sequence (P56481 1-453): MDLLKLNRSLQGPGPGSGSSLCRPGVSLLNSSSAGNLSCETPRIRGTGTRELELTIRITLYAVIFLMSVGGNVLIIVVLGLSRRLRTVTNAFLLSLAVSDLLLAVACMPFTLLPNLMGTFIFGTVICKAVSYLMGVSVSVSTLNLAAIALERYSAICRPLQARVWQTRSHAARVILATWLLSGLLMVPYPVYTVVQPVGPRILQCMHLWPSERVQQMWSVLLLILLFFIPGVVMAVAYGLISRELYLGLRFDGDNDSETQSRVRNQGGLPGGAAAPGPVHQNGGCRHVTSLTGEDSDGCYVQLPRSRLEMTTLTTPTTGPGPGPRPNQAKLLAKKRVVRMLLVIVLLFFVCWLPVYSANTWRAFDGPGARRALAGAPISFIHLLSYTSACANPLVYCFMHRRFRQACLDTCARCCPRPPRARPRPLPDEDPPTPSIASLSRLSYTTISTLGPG
Procedure: The compounds were assayed for selectivity with respect to the CCKB receptor in mouse cortical membranes by means of a radioligand binding assay. The procedure was as follows:
The whole brains from male mice (CDI 22-25 g; Charles River) were removed and placed in ice-cold buffer (pH 7.2 at 21°±3° C.) of the following composition (mM); 10 HEPES, 130 NaCl, 4.7 KCl, 5 MgCl2, 1 EDTA and containing 0.25 g. 1^-1 bacitracin.
The cortex was dissected, weighed and homogenised in 40 ml ice-cold buffer using a Teflon-in-glass homogeniser. The homogenate was centrifuged at 39,800 g for 20 min at 4° C., the supernatant discarded and the pellet resuspended by homogenisation in fresh buffer. The homogenate was recentrifuged (39,800 g; 20 min at 4° C.) and the final pellet was resuspended in HEPES buffer to give a tissue concentration of 2 mg ml^-1 (original wet weight).
The membranes (400 μl) were incubated for 150 min at 21°±3° C. in a final volume of 0.5 ml with HEPES buffer containing [^125 I] CCK-8S (0.05 ml; 200 pM NEN 2200Ci.mmol^-1) and competing compound. Total and non-specific binding of [^125 I] CCK-8S were defined using 0.05 ml of buffer and 0.05 ml of 10 mM L-365,260, respectively. The assay was terminated by rapid filtration through pre-soaked Whatman GF/B filters using a Brandell Cell harvester. The filters were washed (3×3 ml) with ice-cold 50 mM Tris-HCl (pH 7.4 at 4° C.) and bound radioactivity determined by counting (1 min.) in a gamma counter.

Row | Kb [1] [µM] | Ki (CCKA) [µM] | Ki (CCKB receptor) [µM] | Compound
1 | 1.26 | 2 | 10 | CCCCCN(CCCCC)C(=O)[C@H](CC(=O)O)NS(=O)(=O)c1cccc2ccccc12 [Example 21, 1-Naphthalenesulphonyl-L-aspartyl dipentylamide]
2 | 0.631 | 1.58 | 3.16 | CCCCCN(CCCCC)C(=O)[C@H](CCC(=O)O)NS(=O)(=O)c1ccc2ccccc2c1 [Example 19, 2-Naphthalenesulphonyl-L-glutamyl dipentylamide]
3 | 0.158 | 0.126 | 5.01 | CCCCCCN(CCCCCC)C(=O)[C@H](CC(=O)O)NS(=O)(=O)c1ccc2ccccc2c1 [Example 4, 2-Naphthalenesulphonyl-L-aspartyl dihexylamide]
